From ChEMBL document CHEMBL4627246, “Pyroglutamide-Based P2X7 Receptor Antagonists Targeting Inflammatory Bowel Disease” (J Med Chem, 2020)

Legend:
Type in all cases: cell-based
NCI-H226 = assay: Cytotoxicity against human NCI-H226 cells assessed as effect on cell growth at 10 uM incubated for 48 hrs by sulforhodamine B assay; settings: nci-h226, 48 h
MDA-MB-435 = assay: Cytotoxicity against human MDA-MB-435 cells assessed as effect on cell growth at 10 uM incubated for 48 hrs by sulforhodamine B assay; settings: mda-mb-435, 48 h
NCI-H322M = assay: Cytotoxicity against human NCI-H322M cells assessed as effect on cell growth at 10 uM incubated for 48 hrs by sulforhodamine B assay
TK-10 = assay: Cytotoxicity against human TK10 cells assessed as effect on cell growth at 10 uM incubated for 48 hrs by sulforhodamine B assay; settings: tk-10, 48 h
KM12 = assay: Cytotoxicity against human KM12 cells assessed as effect on cell growth at 10 uM incubated for 48 hrs by sulforhodamine B assay; settings: km12, 48 h
PC-3 = assay: Cytotoxicity against human PC3 cells assessed as effect on cell growth at 10 uM incubated for 48 hrs by sulforhodamine B assay; settings: pc-3, 48 h
BT-549 = assay: Cytotoxicity against human BT549 cells assessed as effect on cell growth at 10 uM incubated for 48 hrs by sulforhodamine B assay; settings: bt-549, 48 h
CAKI-1 = assay: Growth inhibition of human Caki1 cells assessed as growth percentage at 10 uM incubated for 48 hrs by sulforhodamine B assay; settings: caki-1, 48 h
OVCAR-8 = assay: Cytotoxicity against human OVCAR8 cells assessed as effect on cell growth at 10 uM incubated for 48 hrs by sulforhodamine B assay; settings: ovcar-8, 48 h
MDA-MB-468 = assay: Cytotoxicity against human MDA-MB-468 cells assessed as effect on cell growth at 10 uM incubated for 48 hrs by sulforhodamine B assay; settings: mda-mb-468, 48 h
NCI-H23 = assay: Cytotoxicity against human NCI-H23 cells assessed as effect on cell growth at 10 uM incubated for 48 hrs by sulforhodamine B assay; settings: nci-h23, 48 h
U-251 = assay: Cytotoxicity against human U251 cells assessed as effect on cell growth at 10 uM incubated for 48 hrs by sulforhodamine B assay; settings: u-251, 48 h
SR = assay: Cytotoxicity against human SR cells assessed as effect on cell growth at 10 uM incubated for 48 hrs by sulforhodamine B assay
NCI-H460 = assay: Cytotoxicity against human NCI-H460 cells assessed as effect on cell growth at 10 uM incubated for 48 hrs by sulforhodamine B assay; settings: nci-h460, 48 h
COLO 205 = assay: Cytotoxicity against human COLO205 cells assessed as effect on cell growth at 10 uM incubated for 48 hrs by sulforhodamine B assay; settings: colo 205, 48 h
Malme-3M = assay: Cytotoxicity against human MALME-3M cells assessed as effect on cell growth at 10 uM incubated for 48 hrs by sulforhodamine B assay
M14 = assay: Cytotoxicity against human M14 cells assessed as effect on cell growth at 10 uM incubated for 48 hrs by sulforhodamine B assay; settings: m14, 48 h
Hs-578T = assay: Cytotoxicity against human Hs 578T cells assessed as effect on cell growth at 10 uM incubated for 48 hrs by sulforhodamine B assay
HOP-92 = assay: Cytotoxicity against human HOP92 cells assessed as effect on cell growth at 10 uM incubated for 48 hrs by sulforhodamine B assay; settings: hop-92, 48 h
SF-295 = assay: Cytotoxicity against human SF295 cells assessed as effect on cell growth at 10 uM incubated for 48 hrs by sulforhodamine B assay; settings: sf-295, 48 h

Measured: Activity

O=C(NCc1ccc(Cl)cc1Cl)[C@@H]1CCC(=O)N1C(c1ccccc1)c1ccccc1
Non-Toxic: all assays above

CCCCCCN1C(=O)[C@@H]2C/C(=C\N(C)C)C(=O)N2C1N(C)C (stereo not given in full)
Non-Toxic: all assays above

CN1CCN(/C=C2\C[C@@H](C(=O)NCc3ccc(Cl)cc3Cl)N(c3cccs3)C2=O)CC1
Non-Toxic: all assays above

COc1ccc(NC(=O)[C@@H]2C/C(=C\N(C)C)C(=O)N2)cc1
Non-Toxic: all assays above

O=C(NCc1ccc(Cl)cc1Cl)[C@@H]1CCC(=O)N1c1ccc(Cl)cc1Cl
Non-Toxic: all assays above

CN(C)C(=O)[C@@H]1CCC(=O)N1
Non-Toxic: all assays above

CN1C(=O)C(C)(C)C[C@H]1C(=O)NCc1cccc(C(F)(F)F)c1Cl
Non-Toxic: all assays above

N#Cc1ccc(N2C(=O)CC[C@H]2C(=O)NCc2ccc(Cl)cc2Cl)cc1
Non-Toxic: all assays above

CCCCCCN1C(=O)[C@@H]2CCC(=O)N2C1N(C)C (stereo not given in full)
Non-Toxic: all assays above

O=C1N[C@H](C(=O)NCc2ccc(Cl)cc2Cl)C/C1=C/NCc1ccc(Cl)cc1Cl
Non-Toxic: all assays above

CN(C)/C=C1\C[C@H]2C(=O)N(/C(=C/N(C)C)c3ccncc3)C(N(C)C)N2C1=O (stereo not given in full)
Non-Toxic: all assays above

O=C(NCCc1ccc(Cl)cc1Cl)[C@@H]1CCC(=O)N1c1ccccc1
Non-Toxic: all assays above

O=C(NCc1ccc(Cl)cc1Cl)[C@@H]1CCC(=O)N1c1cccs1
Non-Toxic: all assays above
